Experimental data from patent US7893064B2, “Hydrazone derivatives as kinase inhibitors” (Janssen Pharmaceutica NV, priority 2006, dated 2011).

Tests used:
[1] = target: T1, HER2 (GST-HIS6-Thrombin fusion, amino acids 679 to 1255 of HER-2) (Homo sapiens, UniProt P04626); experiment: HER2 Screening Assay; type: biochemical; conditions: 10 μM ATP, biotin-poly(GT) 4:1, 33P FlashPlate
T1 construct: GST (N); HIS6 (N); thrombin cleavage site (N); purchased Proqinase, Freiburg, Germany
Method: A kinase reaction mixture was prepared containing 50 mM Tris-HCl pH=8, 10 mM MgCl2, 0.1 mM […], 1 mM DTT, 10 μM ATP, 0.025 μM biotinylated histone-H1 peptide substrate and 0.2 μCuries per well ^33P-γ-ATP (2000-3000 Ci/mmol). 70 μL of the kinase reaction mixture was dispensed into the well of a streptavidin coated FlashPlate™ (Cat. # SMP103, NEN, Boston, Mass.).
Test compound stock in 100% DMSO (1 μL) was added to the wells resulting in a final concentration of 1% DMSO in the reaction with a 100 μL final reaction volume. Each enzyme was diluted in 50 mM Tris-HCl pH=8.0, 0.1% BSA and 30 μL was added to each well to initiate the reaction. The reaction was incubated for one hour at 30° C. At the end of the 1 hr incubation, the reaction was terminated by aspirating the mixture from the plate and washing the wells twice with PBS containing 100 mM EDTA. The biotinylated peptide substrate became immobilized on the Flashplate™ and the incorporation of ^33P-γ-ATP was measured by reading the plate on a scintillation counter. Inhibition of the enzymatic activity was measured by observing a reduced amount of ^33P-γ-ATP incorporated into the immobilized peptide.
The HER2 construct consisted of a fusion of GST (Glutathione-S-Transferase), HIS6 Thrombin and the nucleotides encoding amino acids 679 to 1255 of HER-2 (Accession number M11730) (Proqinase, Freiburg, Germany). The assay used 200 ng of the N-terminal biotinylated peptide biotin-poly(GT) 4:1 (HER2) per well.
A maximum and minimum signal for the assay was determined on each plate. The percent inhibition of a test compound was calculated according to the formula: […]
For a series of test concentrations, the IC50 was derived by graphing percent inhibition against the log of the concentrations tested for a given compound with results shown in Table 2.

[2] = target: T2, EGFR kinase (GST fusion of intracellular portion of EGFR, NM_005228) (Homo sapiens, UniProt P00533); experiment: EGFR Kinase Assay; type: biochemical; conditions: GSTEGFR, ATP 5 μM, biotinylated polyGluTyr, 33P Flashplate; read-out: EGFR Inhibition (%) IC50
T2 construct: The intracellular portion of EGFR started at nucleotide 2189 (corresponding to amino acid 667) and ended at the termination codon; made in house; host or cells: Sf9 insect cells (baculovirus)
Description: The portion was PCR amplified with primers that added the lambda attB sequences to each end, recombined into an entry vector, then into a GST destination vector (as described in Gateway Technologies Manual by Invitrogen Corporation, Carlsbad, Calif.).
The destination vector was recombined in the DH10BAC strain of bacteria to produce a bacmid. The bacmid was transfected into Sf9 cells and the supernatant containing the baculovirus was collected. The GSTEGFR protein was purified using large cultures of Sf9 cells infected with stock virus. After an appropriate period of time, the cells were collected and lysed. The GSTEGFR was then purified from the lysate on Glutathione-Sepharose columns (as described by Amersham Biosciences, Buckinghamshire, United Kingdom).
The free biotin was separated from the biotinylated polyGluTyr on a gel filtration column.
A mixture of a 10× kinase buffer (500 mM Tris at pH 8.0, 100 mM Magnesium Chloride and 1 mM Sodium Vanadate), DTT (1 mM final from 500 mM stock), ATP (5 μM final from 10 mM stock), biotinylated polyGluTyr (10 μg/μL stock), γ-^33P ATP (10 μCi/μL stock) and water was added to each well (90 μL/well) of a Streptavidin Flashplate (Perkin Elmer, Wellesley, Mass.).
Test compound in 100% DMSO (2 μL) was added to the appropriate wells. Diluted GSTEGFR (1:300 dilution in 50 mM Tris at pH 8.0 and 0.1% bovine serum albumin) (10 μL) was added to the wells to initiate the reactions.
The plates were incubated at 30° C. for 1 hr with shaking. The reacted contents were removed and the plates were sequentially washed three times with a 1×PBS stop buffer (300 μL without Magnesium and Calcium) and 100 mM EDTA. After the final wash, the same stop buffer (200 μL) was added to the wells. The plates were then sealed and read on the TopCount scintillation counter.
Test compounds were assayed in triplicate at 16 concentrations at half-log dilutions starting at 200 uM. A maximum and minimum signal for the assay was determined on each plate. The percent inhibition of a test compound was calculated according to the formula
For a series of test concentrations, the IC50 was derived by graphing percent inhibition against the log of the concentrations tested for a given compound.

[3] = tested on: BT474 breast carcinoma cells; experiment: Cell Proliferation Inhibition Assay (14C-thymidine incorporation), BT-474; type: cell-based; conditions: Homo sapiens, BT-474 cells
Description: (§1) The ability of a test compound to inhibit unregulated cell proliferation may be determined by measuring incorporation of ^14C-labelled thymidine into newly synthesized DNA within cell lines derived from carcinomas originating from several tissues. Accordingly, the anti-proliferative effect of a compound on cells with a variety of phenotypes may be determined.
(§2) Carcinoma cell lines were obtained from the American Type Culture Collection (ATCC) and include those such as N87 (ATCC Cat. #), SKBR3 breast carcinoma (ATCC Cat. #HTB-30) and BT474 breast carcinoma (ATCC Cat. #HTB-20)
(§3) The carcinoma cells are trypsinized and counted. The cells (3000-8000 count) are added to each well of a 96-well CytoStar tissue culture treated scintillating microplate (Amersham #RPNQ0160) in complete medium (100 μL) and the plate is then incubated in complete medium for 24 hrs at 37° C. in an inert atmosphere containing 5% CO2. Test compound (1 μL) in 100% DMSO is added to the plate test-wells with DMSO only added to control-wells. The plate is incubated in complete medium for a second 24 hr period at 37° C. in an atmosphere containing 5% CO2.
(§4) An aliquot of a solution of Methyl ^14C-thymidine (56 mC/mmol) (NEN #NEC568 or Amersham #CFA532) and complete medium (20 μL to provide 0.2 μCi/well) is then added to each well and the plate is incubated for a third 24 hr period at 37° C. in an atmosphere containing 5% CO2. The plate contents are then discarded, the plate is washed twice with PBS (200 μL) and then PBS (200 μL) is added to each well. The plate is sealed and the degree of methyl ^14C-thymidine incorporation is quantified on a Packard Top Count.

[4] = tested on: SKBR3 breast carcinoma cells; experiment: Cell Proliferation Inhibition Assay (14C-thymidine incorporation), SK-BR-3; type: cell-based; conditions: Homo sapiens, SK-BR-3 cells
Description: as §1, §2, §3, §4

N87 carcinoma cells = experiment: Cell Proliferation Inhibition Assay (14C-thymidine incorporation), N87; type: cell-based
Description: as §1, §2, §3, §4

T1 sequence (P04626 679-1255): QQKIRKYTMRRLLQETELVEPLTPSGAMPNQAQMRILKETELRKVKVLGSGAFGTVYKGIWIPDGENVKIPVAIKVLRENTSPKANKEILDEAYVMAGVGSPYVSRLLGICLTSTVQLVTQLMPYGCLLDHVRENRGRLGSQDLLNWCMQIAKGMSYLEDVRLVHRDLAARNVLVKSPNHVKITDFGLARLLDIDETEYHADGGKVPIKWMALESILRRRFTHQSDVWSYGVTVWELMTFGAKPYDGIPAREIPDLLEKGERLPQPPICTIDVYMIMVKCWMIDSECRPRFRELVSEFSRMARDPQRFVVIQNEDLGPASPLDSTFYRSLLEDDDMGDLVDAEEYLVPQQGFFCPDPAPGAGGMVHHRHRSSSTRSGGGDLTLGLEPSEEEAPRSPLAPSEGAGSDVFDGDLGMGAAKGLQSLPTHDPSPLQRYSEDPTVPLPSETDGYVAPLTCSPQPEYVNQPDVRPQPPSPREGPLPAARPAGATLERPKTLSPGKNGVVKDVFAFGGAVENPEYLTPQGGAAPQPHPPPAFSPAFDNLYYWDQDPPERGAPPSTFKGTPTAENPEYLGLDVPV
T2 sequence (P00533 669-1210 limits assumed): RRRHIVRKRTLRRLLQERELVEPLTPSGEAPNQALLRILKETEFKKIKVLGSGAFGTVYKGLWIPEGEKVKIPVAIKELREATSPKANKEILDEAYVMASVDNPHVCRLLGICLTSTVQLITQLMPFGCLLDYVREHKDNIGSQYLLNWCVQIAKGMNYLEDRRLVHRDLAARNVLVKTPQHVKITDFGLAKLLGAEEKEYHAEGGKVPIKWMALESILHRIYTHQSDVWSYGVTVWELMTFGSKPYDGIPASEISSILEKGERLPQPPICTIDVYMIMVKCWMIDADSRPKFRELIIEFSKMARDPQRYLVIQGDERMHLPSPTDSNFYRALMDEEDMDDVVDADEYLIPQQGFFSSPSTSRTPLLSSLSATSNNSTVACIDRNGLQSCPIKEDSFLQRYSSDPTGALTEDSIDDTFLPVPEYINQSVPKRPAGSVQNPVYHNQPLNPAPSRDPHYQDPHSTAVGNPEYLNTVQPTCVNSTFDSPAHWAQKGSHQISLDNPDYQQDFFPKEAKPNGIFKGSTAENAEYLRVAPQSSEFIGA

Row | SMILES | IC50 [1] [nM] | IC50 [2] [nM] | IC50 [3] [nM] | IC50 [4] [nM] | IC50 (N87 carcinoma cells) [nM]
1 | COc1ccc(NN=Cc2c(N)ncnc2Nc2ccc3c(cnn3Cc3cccc(F)c3)c2)cc1 [Cpd 1, N-[1-(3-fluoro-benzyl)-1H-indazol-5-yl]-5-[(4-methoxy-phenyl)-hydrazonomethyl]-pyrimidine-4,6-diamine] | 118 | 49 |  |  | 
2 | CNN=Cc1c(N)ncnc1Nc1ccc2c(cnn2Cc2cccc(F)c2)c1 [Cpd 2, N-[1-(3-fluoro-benzyl)-1H-indazol-5-yl]-5-(methyl-hydrazonomethyl)-pyrimidine-4,6-diamine] | 83.6 | 12.4 |  |  | 
3 | Nc1ncnc(Nc2ccc3c(cnn3Cc3cccc(F)c3)c2)c1C=NN1CCCCC1 [Cpd 3, N-[1-(3-fluoro-benzyl)-1H-indazol-5-yl]-5-(piperidin-1-yliminomethyl)-pyrimidine-4,6-diamine] | 18.3 |  | 48.5 | 691 | 365
4 | Nc1ncnc(Nc2ccc3c(cnn3Cc3cccc(F)c3)c2)c1C=NN1CCOCC1 [Cpd 4, N-[1-(3-fluoro-benzyl)-1H-indazol-5-yl]-5-(morpholin-4-yliminomethyl)-pyrimidine-4,6-diamine] | 6.6 | 16.5 | 30.5 | 122 | 90.5
5 | CN(C)/N=C/c1c(N)ncnc1Nc1ccc2c(cnn2Cc2cccc(F)c2)c1 [Cpd 5, 5-(dimethyl-hydrazonomethyl)-N-[1-(3-fluoro-benzyl)-1H-indazol-5-yl]-pyrimidine-4,6-diamine] | 2.4 | 8.2 | 63 | 148 | 131
6 | CN1CCN(N=Cc2c(N)ncnc2Nc2ccc3c(cnn3Cc3cccc(F)c3)c2)CC1 [Cpd 6, N-[1-(3-fluoro-benzyl)-1H-indazol-5-yl]-5-[(4-methyl-piperazin-1-ylimino)-methyl]-pyrimidine-4,6-diamine] | 8.4 | 15.6 |  |  | 
7 | COC[C@@H]1CCCN1N=Cc1c(N)ncnc1Nc1ccc2c(cnn2Cc2cccc(F)c2)c1 [Cpd 8, N-[1-(3-fluoro-benzyl)-1H-indazol-5-yl]-5-{[(2S)-2-methoxymethyl-pyrrolidin-1-ylimino]-methyl}-pyrimidine-4,6-diamine] | 38.8 | 26.5 |  |  | 

The remaining molecules from weak to strong by IC50 [1], led by results:

Row | IC50 [1] [nM] | IC50 [2] [nM] | IC50 [3] [nM] | IC50 [4] [nM] | IC50 (N87 carcinoma cells) [nM] | SMILES
8 | 72.2 | 31.2 |  |  |  | COC[C@H]1CCCN1N=Cc1c(N)ncnc1Nc1ccc2c(cnn2Cc2cccc(F)c2)c1 [Cpd 7, N-[1-(3-fluoro-benzyl)-1H-indazol-5-yl]-5-{[(2R)-2-methoxymethyl-pyrrolidin-1-ylimino]-methyl}-pyrimidine-4,6-diamine]
9 | 19.8 | 52.9 |  |  |  | Nc1ncnc(Nc2ccc3c(cnn3Cc3cccc(F)c3)c2)c1C=NNCC(F)(F)F [Cpd 10, N-[1-(3-fluoro-benzyl)-1H-indazol-5-yl]-5-[(2,2,2-trifluoro-ethyl)-hydrazonomethyl]-pyrimidine-4,6-diamine]
10 | 8.37 | 9.77 | 13.5 | 58.5 | 58.4 | Nc1ncnc(Nc2ccc3c(cnn3Cc3cccc(F)c3)c2)c1C=NN1CCN(CCO)CC1 [Cpd 9, 2-[4-({4-amino-6-[1-(3-fluoro-benzyl)-1H-indazol-5-ylamino]-pyrimidin-5-ylmethylene}-amino)-piperazin-1-yl]-ethanol]
